# Experimental data from PubChem BioAssay (NCI).
# Where “and” joins values, the source holds several entries; their conditions need not be identical. Equal entries are not always repeated.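 Dose response: 5 concentrations. Exposure: 48 h. Format: 96-well plates. Endpoint: linear interpolation; highest concentration if not reached. At the GI50, growth is halved. Definition used: TGI = concentration required for complete inhibition of growth.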
# Tests used:
# Assay in all cases: inhibition of tumour cell growth, NCI panel, 48 h
# BT-549 breast = system: BT-549 breast
# COLO 205 colon = system: COLO 205 colon
# EKVX NSCLC = system: EKVX NSCLC
# HCT-116 colon = system: HCT-116 colon
# KM12 colon = system: KM12 colon
# LOX IMVI melanoma = system: LOX IMVI melanoma
# NCI-H522 lung = system: NCI-H522 lung
# PC-3 prostate = system: PC-3 prostate
# SF-268 CNS = system: SF-268 CNS
# U251 CNS = system: U251 CNS
Structure (SMILES),GI50 (BT-549 breast) [µM],TGI (BT-549 breast),GI50 (COLO 205 colon) [µM],TGI (COLO 205 colon) [µM],GI50 (EKVX NSCLC) [µM],TGI (EKVX NSCLC) [µM],GI50 (HCT-116 colon) [µM],TGI (HCT-116 colon),GI50 (KM12 colon) [µM],TGI (KM12 colon) [µM],GI50 (LOX IMVI melanoma) [µM],TGI (LOX IMVI melanoma) [µM],GI50 (NCI-H522 lung) [µM],TGI (NCI-H522 lung),GI50 (PC-3 prostate) [µM],TGI (PC-3 prostate),GI50 (SF-268 CNS) [µM],TGI (SF-268 CNS) [µM],GI50 (U251 CNS) [µM],TGI (U251 CNS)
CC(C)(C)OC(=O)NCCCCCCCCCCCCn1c2c(c3ccccc3c1=O)C(=O)c1ccccc1-2,38.5,> 100 µM,> 100,> 100,85.7,> 100,> 100,> 100 µM,> 100,> 100,> 100,> 100,45,> 100 µM,> 100,> 100 µM,26.8,> 100,36,> 100 µM
CC(C)C(Br)C(=O)NCC(=O)O (stereo not drawn),,> 100 µM,,> 100,,> 100,,> 100 µM,,> 100,,> 100,,> 100 µM,,> 100 µM,,> 100,,> 100 µM
S=C(Nc1ccc(-c2nc3ccccc3s2)cc1)Nc1ccc(-c2nc3ccccc3s2)cc1,9.36,40.1 µM,27.4,> 100,8.79,30.2,16.6,33.9 µM,20.1,> 100,15.2,30.5,11.2,26.2 µM,26.8,> 100 µM,23.6,94.8,17.2,41.6 µM
COc1ccc(C(=O)Cn2c(C(=O)c3ccc(Cl)cc3)nc(-c3ccccc3)c2-c2ccccc2)cc1,> 100,> 100 µM,> 100,> 100,> 100,> 100,> 100,> 100 µM,> 100,> 100,> 100,> 100,> 100,> 100 µM,> 100,> 100 µM,> 100,> 100,73,> 100 µM
CN(C)CCN=c1nc2c(c(N)n1-c1ccccc1)c(=S)n(-c1ccccc1)c(=S)n2-c1ccccc1,3.21,13.3 µM,1.52,3.32,11,27.2,2.24,9.38 µM,3.8,14.2,1.38,2.71,2.39,6.82 µM,4.58,27.7 µM,3.34,15.1,1.4,3.19 µM
COc1ccc(CN2c3ccccc3Sc3ccccc32)cc1O,0.773,17.1 µM,0.789,4.6,0.378,15.9,0.386,13.1 µM,,,0.71,18.8,0.241,0.781 µM,0.503,16.1 µM,0.966,20.5,0.427,14.5 µM
CCOc1ccc2cc(-c3nn(CC4CCN(C)CC4)c4ncnc(N)c34)ccc2c1,13.6,29 µM,11.9,26.7,26.4,> 100,12.1,28.1 µM,18,45.2,19.4,59,16.6,33.5 µM,17,43.5 µM,13.7,30.2,12.9,27.5 µM
Cc1nc(C(=O)OCc2ccccc2)cc(OCc2ccccc2)c1C,17.9,34.2 µM,22.6,65.1,19.3,52.7,13.6,32.6 µM,29,> 87.6,17.1,36,15.5,37 µM,21,> 69.8 µM,17.5,41.6,17.6,48.2 µM
CCCCC[C@H]1C/C=C2/C(=O)C=C[C@@H]2C/C=C\CCCC(=O)O1,0.147,0.468 µM,0.113,0.256,0.172,1.97,0.0905,0.232 µM,,,0.0899,0.18,0.0936,0.236 µM,0.165,0.844 µM,0.19,5.94,0.116,0.305 µM
CCN(CC)c1ccc(/C=N/N=C(N)N)cc1,6.84,33.9 µM,1.79,3.51,7.59,93.8,4.85,18.5 µM,3.47,16.4,5.02,19.9,1.91,4.8 µM,3.51,92.9 µM,5.43,82.5,5.49,23.4 µM
Fc1ccc(-c2ncn(C3CCNCC3)c2-c2ccnc(Oc3ccc(Cl)cc3)n2)cc1,5.05,18.8 µM,3.76,7.31,6,> 21.3,3.97,7.65 µM,4.51,8.79,4.16,8.29,4.49,9.34 µM,6.31,> 15.9 µM,8.67,> 25,3.66,7.24 µM
C=C1C(=O)O[C@@H]2C[C@@H](C)[C@@H]3C=CC(=O)[C@@]3(C)[C@@H](OC(=O)CCCC(=O)O[C@H]3[C@@H]4C(=C)C(=O)O[C@@H]4C[C@@H](C)[C@@H]4C=CC(=O)[C@]43C)[C@H]12,,0.07 µM,,0.111,,0.264,,0.03 µM,,0.662,,0.152,,0.0253 µM,,0.299 µM,,0.23,,0.377 µM
CCNc1ccc2c(c1)C(=O)N(OS(C)(=O)=O)C2=O,,> 100 µM,,> 100,,> 100,,> 100 µM,,> 100,,> 100,,34.8 µM,,> 100 µM,,> 100,,> 100 µM
COc1c(OC2OC(C)C(O)C(O)C2O)c(OC)c2oc(-c3ccc(O)cc3)cc(=O)c2c1O (stereo not drawn),25.4,72.6 µM,29.3,> 100,38.4,> 100,32.4,> 100 µM,39.7,> 100,27.9,> 100,24.2,64.5 µM,34.8,> 100 µM,33.1,> 100,30.2,> 100 µM
COc1ccc(N=c2nc3sc4cc(Cl)ccc4n3c(N)c2C#N)cc1,5.17,98 µM,2.39,6.47,2.45,> 100,6.5,> 100 µM,2.47,6.89,2.06,5.07,20.6,> 100 µM,15.4,> 100 µM,4.29,> 100,4.38,> 100 µM
Cn1cc(-c2csc(-c3ccc(Cl)cc3)n2)c2cccnc21,18.6,51.9 µM,13.7,26.6,2.85,26.1,12.8,25.4 µM,13,27.6,12.4,24.9,13.6,38.2 µM,11.4,34.2 µM,15.4,34,14.6,29.4 µM
COc1cc(C=NCC(=O)CSC(c2ccccc2)c2ccccc2)ccc1O,14,31.6 µM,10.6,22.4,14.3,50.7,8.69,21 µM,11.9,26.3,10.5,23.5,,,9.26,28.2 µM,17.2,40,14,26.9 µM
CC(=O)/C(=N\N=C(N)N)c1ccccc1,,> 100 µM,,> 100,,> 100,,> 100 µM,,> 100,,> 100,,> 100 µM,,> 100 µM,,> 100,,> 100 µM
COC(=O)c1c(C(=O)O)c(-c2ccccc2)c(-c2ccccc2)c(-c2ccccc2)c1-c1ccccc1,> 100,> 100 µM,> 100,> 100,> 100,> 100,77.9,> 100 µM,> 100,> 100,> 100,> 100,88.5,> 100 µM,> 100,> 100 µM,> 100,> 100,> 100,> 100 µM
CCOC(=O)c1sc(NC(=O)COc2ccc(/C=C3\CCc4cc(OC)ccc4C3=O)cc2)nc1C,1.4,17.7 µM,15.5,30,18.5,53.3,12.9,25.6 µM,7.13,21.5,1.31,18.8,4.56,12.1 µM,10.2,> 57.3 µM,11.4,26.5,8.75,21.8 µM
O=C(OCC1=CC(=O)c2ccccc2C1=O)c1ccccc1,13.8,27 µM,2.74,10.7,12.9,27.5,15.5,29.7 µM,11.6,24.7,5.69,21.5,15,28.6 µM,14.1,38 µM,14.1,29.6,14.6,28.5 µM
CCOC(=O)C(Cc1cc(OC)c(CC(C(=O)OCC)C(=O)OCC)cc1OC)C(=O)OCC,,> 100 µM,,> 100,,> 100,,> 100 µM,,> 100,,> 100,,> 100 µM,,> 100 µM,,> 100,,> 100 µM
CN(Cc1cnc2nc(N)nc(N)c2n1)c1c(Cl)cc(C(=O)NC(CCC(=O)O)C(=O)O)cc1Cl (stereo not drawn),1.4,> 100 µM,0.08,> 100,,> 100,< 0.01,> 100 µM,< 0.0137,> 100,< 0.01,> 100,0.0457,> 100 µM,< 0.01,> 100 µM,< 0.0169,> 100,0.0423,> 100 µM
CC(=O)c1nc(-c2ccc(C[C@@H](CNC(=O)CN(C)C)NC(=O)c3ccc(OC(C)C)c(Cl)c3)cc2)cn1C,0.285,19.5 µM,0.0292,3.84,0.0455,17.8,0.0393,13.1 µM,0.0662,21.1,0.16,16.5,< 0.0181,13.8 µM,0.0652,19.6 µM,0.242,22.7,0.0215,16.7 µM
COc1ccc(-c2cn3ccnc3c(-c3ccc(Cl)cc3)n2)cc1,16.5,> 100 µM,5.49,> 100,2.39,> 100,> 100,> 100 µM,4.68,> 100,7.95,> 100,> 100,> 100 µM,14.5,> 100 µM,10.6,64.8,,
CCCC(=O)Nc1cc(/C=C/C(=O)N2C[C@@H]3C[C@]34C2=CC(=O)c2[nH]cc(C)c24)n(C)c1,0.233,1.96 µM and 0.749 µM,,,0.172,,0.03,8.32 µM and 69.9 µM,,2.6,0.0112,,0.0287,0.219 µM and 0.141 µM,0.125,5.7 µM and 0.625 µM,,4.89,0.0359,3.72 µM and 13.8 µM
C/C(=N\NC(=S)N1CCCC1)c1ccccn1,0.018,14.9 µM,< 0.01,10.8,,,< 0.01,12.1 µM,< 0.01,15.2,< 0.01,11.1,0.171,6.09 µM,< 0.01,16.7 µM,0.0261,12.7,< 0.01,11.9 µM
